The supplement of paper PMC10307832

How the values were obtained:
Assay in all cases: relative viability (nuclei count vs DMSO), 5 days (fraction); higher = more cells survive
[1] = tested on: NCI-H2405
In short: (§1)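 Dosing by pin tool came one day after lung cancer cell lines were seeded in 1536-well plates, using either one drug or a fixed anchor-drug dose plus five library-drug doses (not always all listed) in √10 steps. After 5 days, nuclei were counted on 4× images. Relative viability is treated-well nuclei count divided by vehicle-well nuclei count, and values are medians of duplicate plates.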

[2] = tested on: EKVX
In short: as §1

[3] = tested on: H3255
In short: as §1

[4] = tested on: PC-3 [JPC-3]
In short: as §1

[5] = tested on: 201T
In short: as §1

[6] = tested on: COR-L 105
In short: as §1

[7] = tested on: NCI-H2228
In short: as §1

[8] = tested on: NCI-H23
In short: as §1

[9] = tested on: NCI-H596
In short: as §1

[10] = tested on: HARA
In short: as §1

## CCNC(=O)c1noc(-c2cc(C(C)C)c(O)cc2O)c1-c1ccc(CN2CCOCC2)cc1 [Luminespib] + CS(=O)(=O)CCNCc1ccc(-c2ccc3ncnc(Nc4ccc(OCc5cccc(F)c5)c(Cl)c4)c3c2)o1 [Lapatinib] (partner 2 µM)
[1]; first compound 0.002 µM
  relative viability: 1.17
[1]; first compound 0.006325 µM
  relative viability: 0.876
[1]; first compound 0.02 µM
  relative viability: 0.869
[1]; first compound 0.06325 µM
  relative viability: 0.144
[1]; first compound 0.2 µM
  relative viability: 0.125
[2]; first compound 0.002 µM
  relative viability: 0.183
[2]; first compound 0.006325 µM
  relative viability: 0.228
[2]; first compound 0.02 µM
  relative viability: 0.175
[2]; first compound 0.06325 µM
  relative viability: 0.158
[2]; first compound 0.2 µM
  relative viability: 0.0973
[3]; first compound 0.002 µM
  relative viability: 0.245
[3]; first compound 0.006325 µM
  relative viability: 0.305
[3]; first compound 0.02 µM
  relative viability: 0.234
[3]; first compound 0.06325 µM
  relative viability: 0.233
[3]; first compound 0.2 µM
  relative viability: 0.25
[4]; first compound 0.002 µM
  relative viability: 0.486
[4]; first compound 0.006325 µM
  relative viability: 0.471
[4]; first compound 0.02 µM
  relative viability: 0.404
[4]; first compound 0.06325 µM
  relative viability: 0.488
[4]; first compound 0.2 µM
  relative viability: 0.338
[5]; first compound 0.002 µM
  relative viability: 1.03
[5]; first compound 0.006325 µM
  relative viability: 0.961
[5]; first compound 0.02 µM
  relative viability: 0.878
[5]; first compound 0.06325 µM
  relative viability: 1.02
[5]; first compound 0.2 µM
  relative viability: 0.986
[6]; first compound 0.002 µM
  relative viability: 0.363
[6]; first compound 0.006325 µM
  relative viability: 0.354
[6]; first compound 0.02 µM
  relative viability: 0.283
[6]; first compound 0.06325 µM
  relative viability: 0.266
[6]; first compound 0.2 µM
  relative viability: 0.302
[7]; first compound 0.002 µM
  relative viability: 1.2
[7]; first compound 0.006325 µM
  relative viability: 0.808
[7]; first compound 0.02 µM
  relative viability: 0.191
[7]; first compound 0.06325 µM
  relative viability: 0.126
[7]; first compound 0.2 µM
  relative viability: 0.117
[8]; first compound 0.002 µM
  relative viability: 1.02
[8]; first compound 0.006325 µM
  relative viability: 1.1
[8]; first compound 0.02 µM
  relative viability: 0.587
[8]; first compound 0.06325 µM
  relative viability: 0.139
[8]; first compound 0.2 µM
  relative viability: 0.112
[9]; first compound 0.002 µM
  relative viability: 1.18
[9]; first compound 0.006325 µM
  relative viability: 0.99
[9]; first compound 0.06325 µM
  relative viability: 0.933
[9]; first compound 0.2 µM
  relative viability: 0.969
[10]; first compound 0.002 µM
  relative viability: 0.704
[10]; first compound 0.006325 µM
  relative viability: 0.709
[10]; first compound 0.02 µM
  relative viability: 0.465
[10]; first compound 0.06325 µM
  relative viability: 0.335
[10]; first compound 0.2 µM
  relative viability: 0.259
